Test results: ChEMBL document CHEMBL1201862, “PubChem BioAssay data set” (2004)
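All cell lines were grown in 96-well plates and treated with compound for 48 hours. GI50 is the concentration that inhibits growth by half.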 Active and inactive are the calls of the source. No stated cut-off is given here; in the data, active = GI50 up to about 1.1 µM and inactive = higher.

What was measured:
Assay in all cases: growth of human tumour cells (NCI), 48 h
DLD-1 = test system: DLD-1
XF498 = test system: XF498
SNB-78 = test system: SNB-78
HOP-18 = test system: HOP-18
DMS-114 = test system: DMS-114
DMS-273 = test system: DMS-273
LXFL 529 = test system: LXFL 529
KM-20L2 = test system: KM-20L2
RXF 631 = test system: RXF 631

## O=C1c2c(c(-c3ccccc3)c(-c3ccccc3)c(-c3ccccc3)c2-c2ccccc2)C(=O)N1c1cccc(Br)c1
DLD-1
  GI50: > 100 µM (inactive)
XF498
  GI50: > 100 µM (inactive)
SNB-78
  GI50: > 100 µM (inactive)
HOP-18
  GI50: > 100 µM (inactive)
DMS-114
  GI50: > 100 µM (inactive)
DMS-273
  GI50: > 100 µM (inactive)
LXFL 529
  GI50: > 100 µM (inactive)
KM-20L2
  GI50: > 100 µM (inactive)

## O=C(NC(=O)c1cn(CCNCCO)c(=O)[nH]c1=O)OCc1ccccc1
DLD-1
  GI50: > 100 µM (inactive)
SNB-78
  GI50: > 100 µM (inactive)
HOP-18
  GI50: < 0.01 µM (active)
DMS-114
  GI50: > 100 µM (inactive)
LXFL 529
  GI50: > 100 µM (inactive)

## CC(=O)Nc1ccc(-c2nnc(SCC(=O)Nc3ccc(Cl)cc3)o2)cc1
DLD-1
  GI50: 10.4 µM (inactive)
SNB-78
  GI50: 46.2 µM (inactive)
HOP-18
  GI50: 15 µM (inactive)
DMS-114
  GI50: 1.85 µM (inactive)
DMS-273
  GI50: 14.5 µM (inactive)
LXFL 529
  GI50: 8.97 µM (inactive)
KM-20L2
  GI50: 16.4 µM (inactive)

## CC(=O)O[C@H]1CC[C@@]2(C)C(=CC[C@@H]3C2CC[C@]2(C)Nc4nc5ccccc5cc4CC32)C1 (some centres undefined)
DLD-1
  GI50: 3.72 µM (inactive)
XF498
  GI50: 5.89 µM (inactive)
SNB-78
  GI50: 6.01 µM (inactive)
HOP-18
  GI50: 3.94 µM (inactive)
DMS-114
  GI50: 5.4 µM (inactive)
DMS-273
  GI50: 4.82 µM (inactive)
LXFL 529
  GI50: 3.38 µM (inactive)
KM-20L2
  GI50: 1.77 µM (inactive)

## COc1ccc(C2S/C(=C\c3ccc(OC)cc3OC)C(=O)N2NC(=O)Cc2ccccc2)cc1 (centres undefined)
DLD-1
  GI50: > 100 µM (inactive)
HOP-18
  GI50: > 100 µM (inactive)
DMS-114
  GI50: > 100 µM (inactive)
DMS-273
  GI50: > 100 µM (inactive)
LXFL 529
  GI50: > 100 µM (inactive)

## CN(C)CCONC(=O)C12CC3CC(CC(C3)C1)C2
DLD-1
  GI50: > 100 µM (inactive)
XF498
  GI50: > 100 µM (inactive)
SNB-78
  GI50: 26.2 µM (inactive)
DMS-114
  GI50: > 100 µM (inactive)
RXF 631
  GI50: > 100 µM (inactive)
LXFL 529
  GI50: > 100 µM (inactive)
KM-20L2
  GI50: > 100 µM (inactive)

## O=C(/C=C/c1ccccc1O)c1ccccc1Cl
DLD-1
  GI50: 50.1 µM (inactive)
XF498
  GI50: 40.5 µM (inactive)
SNB-78
  GI50: 47.2 µM (inactive)
HOP-18
  GI50: 49.4 µM (inactive)
DMS-114
  GI50: 21.3 µM (inactive)
RXF 631
  GI50: 52.7 µM (inactive)
DMS-273
  GI50: 40.2 µM (inactive)
LXFL 529
  GI50: 30.5 µM (inactive)
KM-20L2
  GI50: > 100 µM (inactive)

## COc1c2c(c(OC)c3c(=O)cc(C/C(=N/NC(=O)C[n+]4ccccc4)C(=O)Nc4cc(C)ccc4C)oc13)OCO2
DLD-1
  GI50: > 100 µM (inactive)
SNB-78
  GI50: > 100 µM (inactive)
DMS-114
  GI50: > 100 µM (inactive)
DMS-273
  GI50: > 100 µM (inactive)
LXFL 529
  GI50: > 100 µM (inactive)
KM-20L2
  GI50: > 100 µM (inactive)

## CN(C)/N=C(/c1nc2ccc([N+](=O)[O-])cc2nc1O)C(O)c1ccco1 (centres undefined)
DLD-1
  GI50: 84.1 µM (inactive)
XF498
  GI50: > 100 µM (inactive)
SNB-78
  GI50: > 100 µM (inactive)
DMS-114
  GI50: 16.4 µM (inactive)
DMS-273
  GI50: 91 µM (inactive)
LXFL 529
  GI50: 58.1 µM (inactive)
KM-20L2
  GI50: 21 µM (inactive)

## COc1cc(OC)c2c(c1)C(=O)C(CC(C)O)=CC2=O (centres undefined)
DLD-1
  GI50: 13.7 µM (inactive)
XF498
  GI50: 14 µM (inactive)
SNB-78
  GI50: 15.3 µM (inactive)
HOP-18
  GI50: 16.7 µM (inactive)
DMS-114
  GI50: 3.08 µM (inactive)
DMS-273
  GI50: 16.6 µM (inactive)
LXFL 529
  GI50: 13.2 µM (inactive)
KM-20L2
  GI50: 17.2 µM (inactive)

## CCc1cccc(C(C)CC)c1/N=C(/NC(=O)c1ccccc1C(=O)N/C(=N/c1c(CC)cccc1C(C)CC)SC)SC (centres undefined)
DLD-1
  GI50: 58.5 µM (inactive)
XF498
  GI50: 48.4 µM (inactive)
SNB-78
  GI50: 21.5 µM (inactive)
HOP-18
  GI50: 26.8 µM (inactive)
RXF 631
  GI50: 51.2 µM (inactive)
LXFL 529
  GI50: 39.9 µM (inactive)
KM-20L2
  GI50: 28.4 µM (inactive)

## COc1c(CC(C)=O)ccc2c1C(=O)c1ccc(C=O)c(OC(C)=O)c1C2=O
DLD-1
  GI50: 3.62 µM (inactive)
SNB-78
  GI50: 18.2 µM (inactive)
HOP-18
  GI50: 22.1 µM (inactive)
DMS-114
  GI50: 12.8 µM (inactive)
RXF 631
  GI50: 20.6 µM (inactive)
DMS-273
  GI50: 10.2 µM (inactive)
LXFL 529
  GI50: 5.53 µM (inactive)
KM-20L2
  GI50: 14.9 µM (inactive)

## CC(=O)N1c2ccccc2N(C(C)=O)C1c1ccc(C2N(C(C)=O)c3ccccc3N2C(C)=O)[nH]1
XF498
  GI50: > 100 µM (inactive)
DMS-114
  GI50: > 100 µM (inactive)
RXF 631
  GI50: > 100 µM (inactive)
DMS-273
  GI50: > 100 µM (inactive)
LXFL 529
  GI50: > 100 µM (inactive)
KM-20L2
  GI50: > 100 µM (inactive)

## CC1CN(c2ccc(Cl)cc2)CC(C)OC(=O)O1 (centres undefined)
DLD-1
  GI50: > 100 µM (inactive)
XF498
  GI50: > 100 µM (inactive)
SNB-78
  GI50: > 100 µM (inactive)
DMS-114
  GI50: > 100 µM (inactive)
DMS-273
  GI50: > 100 µM (inactive)
LXFL 529
  GI50: > 100 µM (inactive)
KM-20L2
  GI50: > 100 µM (inactive)

## Cc1ccc(S(=O)(=O)N/N=C/c2oc(-c3ccncc3)c(-c3ccncc3)c2[N+](=O)[O-])cc1
DLD-1
  GI50: > 100 µM (inactive)
XF498
  GI50: > 100 µM (inactive)
SNB-78
  GI50: > 100 µM (inactive)
HOP-18
  GI50: > 100 µM (inactive)
RXF 631
  GI50: > 100 µM (inactive)
DMS-273
  GI50: > 100 µM (inactive)
LXFL 529
  GI50: > 100 µM (inactive)
KM-20L2
  GI50: > 100 µM (inactive)

## Clc1ccc(OCc2nnc3n2N=C(c2ccc(Br)cc2)CS3)cc1
DLD-1
  GI50: > 10 µM (inactive)
XF498
  GI50: 4.24 µM (inactive)
SNB-78
  GI50: 21.5 µM (inactive)
DMS-114
  GI50: 13.1 µM (inactive)
RXF 631
  GI50: > 10 µM (inactive)
DMS-273
  GI50: 29.8 µM (inactive)
LXFL 529
  GI50: 15.2 µM (inactive)

## CC1CCC(C(C)(C)c2ccccc2)C(=O)C1 (centres undefined)
DLD-1
  GI50: > 100 µM (inactive)
XF498
  GI50: > 100 µM (inactive)
SNB-78
  GI50: > 100 µM (inactive)
HOP-18
  GI50: 24.8 µM (inactive)
DMS-114
  GI50: 75.7 µM (inactive)
DMS-273
  GI50: > 100 µM (inactive)
LXFL 529
  GI50: > 100 µM (inactive)
KM-20L2
  GI50: > 100 µM (inactive)

## CCOc1ccccc1NC(=O)C(C#N)C1=C(Cl)C(=O)c2ccccc2C1=O (centres undefined)
DLD-1
  GI50: 1.85 µM (inactive)
XF498
  GI50: 2.29 µM (inactive)
SNB-78
  GI50: 3.32 µM (inactive)
HOP-18
  GI50: 1.5 µM (inactive)
DMS-114
  GI50: 0.743 µM (active)
RXF 631
  GI50: 2.09 µM (inactive)
DMS-273
  GI50: 1.88 µM (inactive)
LXFL 529
  GI50: 1.85 µM (inactive)
KM-20L2
  GI50: 1.93 µM (inactive)

## CN1C(OCc2ccccc2)c2c(ccc3c2OCO3)C2C=Cc3cc4c(cc3C21)OCO4 (centres undefined)
DLD-1
  GI50: 0.434 µM (active)
SNB-78
  GI50: 0.598 µM (active)
HOP-18
  GI50: 1.33 µM (inactive)
DMS-114
  GI50: 0.305 µM (active)
RXF 631
  GI50: 0.841 µM (active)
LXFL 529
  GI50: 0.371 µM (active)
KM-20L2
  GI50: 1.59 µM (inactive)

## COC(=O)CCC(NC(=S)N/N=C(\C)c1ccccn1)C(=O)OC (centres undefined)
DLD-1
  GI50: 43 µM (inactive)
XF498
  GI50: > 100 µM (inactive)
HOP-18
  GI50: 41.4 µM (inactive)
DMS-114
  GI50: 20.6 µM (inactive)
RXF 631
  GI50: 34.1 µM (inactive)
LXFL 529
  GI50: 40.4 µM (inactive)
KM-20L2
  GI50: 32.4 µM (inactive)

## Cc1[nH]c2ccccc2c1C1CC(=O)NC1=O (centres undefined)
DLD-1
  GI50: > 100 µM (inactive)
SNB-78
  GI50: > 100 µM (inactive)
DMS-114
  GI50: > 100 µM (inactive)
DMS-273
  GI50: > 100 µM (inactive)
KM-20L2
  GI50: > 100 µM (inactive)

## C/C(=C\c1ccccc1)C(O)S(=O)(=O)O (centres undefined)
DLD-1
  GI50: > 100 µM (inactive)
HOP-18
  GI50: > 100 µM (inactive)
DMS-114
  GI50: > 100 µM (inactive)
DMS-273
  GI50: > 100 µM (inactive)
LXFL 529
  GI50: > 100 µM (inactive)
KM-20L2
  GI50: > 100 µM (inactive)

## CCOc1ccc(NCc2cc(OC)c(OC)c(OC)c2)cc1
DLD-1
  GI50: 1.11 µM (active)
DMS-114
  GI50: 0.287 µM (active)
KM-20L2
  GI50: 0.475 µM (active)

## CC1=C(N2CC2)C(=O)c2nc3n(c2C1=O)CCC3OC(=O)CCl (centres undefined)
DLD-1
  GI50: 0.101 µM (active)
XF498
  GI50: 0.0301 µM (active)
SNB-78
  GI50: 0.193 µM (active)
HOP-18
  GI50: 0.043 µM (active)
DMS-114
  GI50: 0.171 µM (active)
DMS-273
  GI50: 0.049 µM (active)
LXFL 529
  GI50: 0.0776 µM (active)
KM-20L2
  GI50: 0.131 µM (active)

## COc1cccc2c1C(=O)c1c(O)c3c(c(O)c1C2=O)C[C@@](O)(C(=O)CO)C[C@@H]3OC1CC(N)C(O)C(C)O1 (some centres undefined)
SNB-78
  GI50: 0.457 µM (active)
HOP-18
  GI50: 0.478 µM (active)
DMS-114
  GI50: 0.0975 µM (active)
RXF 631
  GI50: 0.912 µM (active)
DMS-273
  GI50: 0.0883 µM (active)
KM-20L2
  GI50: 0.879 µM (active)

## N[C@H](C(=O)O)[C@@H]1CC(Cl)=NO1 [ACIVICIN]
DLD-1
  GI50: 1.23 µM (inactive)
XF498
  GI50: 23.8 µM (inactive)
SNB-78
  GI50: 4.25 µM (inactive)
HOP-18
  GI50: 37.9 µM (inactive)
DMS-114
  GI50: 5.53 µM (inactive)
DMS-273
  GI50: 2.33 µM (inactive)
KM-20L2
  GI50: 1.36 µM (inactive)
